In patent US7943550B2, “4-(3-Aminobenzoyl)-1 methylpyrazoles and their use as herbicides” (Bayer Cropscience AG, priority 2007, dated 2011):
Read-outs that look alike come from different tables or passages of the source.

How the values were obtained:
Format in all cases: in vivo
[1] = system: Amaranthus retroflexus; assay: Post-emergence herbicidal action against harmful plants; settings: scored after 3 to 4 weeks
Method: (§1) 2. Post-Emergence Herbicidal Action Against Harmful Plants
(§2) Seeds of mono- and dicotyledonous harmful plants are placed in sandy loam in cardboard pots, covered with soil and grown in the greenhouse under good growth conditions. Two to three weeks after sowing, the test plants are treated at the three-leaf stage. The compounds according to the invention, which are formulated as wettable powders or as emulsion concentrates, are sprayed at an application rate of 600 to 800 l of water/ha (converted) in a dosage stated in tables 1 to 5 onto the surface of the green plant parts. After the test plants have been left to stand in the greenhouse for 3 to 4 weeks under optimum growth conditions, the action of the compounds according to the invention is scored in comparison to compounds disclosed in the prior art. As shown by the results of these comparison tables, the selected compounds according to the invention have better herbicidal activity against a broad spectrum of economically important mono- and dicotyledonous harmful plants than the compounds disclosed in the prior art.

[2] = system: Polygonum convolvulus; assay: as above; settings: Comparative Table 1, 20 g a.i./ha, scored after 3 to 4 weeks
Method: as §1, §2

[3] = system: Viola tricolor; assay: as above; settings: scored after 3 to 4 weeks
Method: as §1, §2

[4] = system: Xanthium strumarium; assay: as above; settings: Comparative Table 1, 20 g a.i./ha, scored after 3 to 4 weeks
Method: as §1, §2

[5] = system: Pharbitis purpureum; assay: as above; settings: scored after 3 to 4 weeks
Method: as §1, §2

[6] = system: Setaria viridis; assay: as above; settings: scored after 3 to 4 weeks, read-out: Activity against harmful plants SETVI; for pest or weed control at 80 g/ha: Comparative Table 2, 80 g a.i./ha
Method: as §1, §2

[7] = system: Veronica persica; assay: as above; settings: scored after 3 to 4 weeks
Method: as §1, §2

[8] = system: Digitaria sanguinalis; assay: as above; settings: Comparative Table 4, 20 g a.i./ha, scored after 3 to 4 weeks
Method: as §1, §2

[9] = system: Galium aparine; assay: as above; settings: Comparative Table 4, 20 g a.i./ha, scored after 3 to 4 weeks
Method: as §1, §2

[10] = system: Amaranthus retroflexus; assay: Pre-emergence herbicidal action against harmful plants; settings: Comparative Table 5, 80 g a.i./ha, visual scoring 3-4 weeks after treatment
Excerpt: (§3) 1. Pre-Emergence Herbicidal Action Against Harmful Plants Seeds or rhizome pieces of mono- and dicotyledonous harmful plants are placed in sandy loam in pots of a diameter of 9 to 13 cm and covered with soil. The herbicides, formulated as emulsifiable concentrates or dusts, are applied to the surface of the covering soil in the form of aqueous dispersions or suspensions or emulsions at an application rate of 300 to 800 l of water/ha (converted), at various dosages. For further cultivation of the plants, the pots are then kept in a greenhouse under optimum conditions. The visual scoring of the damage to the harmful plants is carried out 3-4 weeks after the treatment. As shown by the results of these comparative tables, the selected compounds according to the invention have better herbicidal activity against a broad spectrum of economically important mono- and dicotyledonous harmful plants than the compounds disclosed in the prior art.

[11] = system: Avena fatua; assay: as above; settings: Comparative Table 5, 80 g a.i./ha, visual scoring 3-4 weeks after treatment
Excerpt: as §3

[12] = system: Echinochloa crus galli; assay: as above; settings: visual scoring 3-4 weeks after treatment
Excerpt: as §3

[13] = system: Setaria viridis; assay: as above; settings: visual scoring 3-4 weeks after treatment
Excerpt: as §3

[14] = system: Cyperus serotinus; assay: as above; settings: Comparative Table 7, 320 g a.i./ha, visual scoring 3-4 weeks after treatment
Excerpt: as §3

[15] = system: Polygonum convolvulus; assay: as above; settings: Comparative Table 7, 320 g a.i./ha, visual scoring 3-4 weeks after treatment
Excerpt: as §3

[16] = system: Veronica persica; assay: as above; settings: Comparative Table 7, 320 g a.i./ha, visual scoring 3-4 weeks after treatment
Excerpt: as §3

[17] = system: Abutilon theophrasti; assay: Post-emergence herbicidal action against harmful plants; settings: Comparative Table 8, 20 g a.i./ha, scored after 3 to 4 weeks
Method: as §1, §2

[18] = system: Stellaria media; assay: as above; settings: Comparative Table 8, 20 g a.i./ha, scored after 3 to 4 weeks
Method: as §1, §2

[19] = Comparative Table 1, 20 g a.i./ha
[20] = Comparative Table 2, 80 g a.i./ha
[21] = Comparative Table 3, 20 g a.i./ha
[22] = Comparative Table 4, 20 g a.i./ha
[23] = Comparative Table 5, 80 g a.i./ha
[24] = Comparative Table 6, 20 g a.i./ha
[25] = Comparative Table 8, 20 g a.i./ha

CNc1c(S(C)(=O)=O)ccc(C(=O)c2cnn(C)c2O)c1C
Activity against harmful plants AMARE [1, 19]: 90%
Activity against harmful plants POLCO [2]: 90%
Activity against harmful plants VIOTR [3, 19]: 100%
Activity against harmful plants XANST [4]: 80%

CNc1c(S(C)(=O)=O)ccc(C(=O)c2cnn(C)c2O)c1Cl
Activity against harmful plants AMARE [1, 19]: 70%
Activity against harmful plants POLCO [2]: 40%
Activity against harmful plants VIOTR [3, 19]: 70%
Activity against harmful plants XANST [4]: 50%

COCCCN(C)c1c(S(C)(=O)=O)ccc(C(=O)c2cnn(C)c2O)c1C
Activity against harmful plants AMARE [1, 20]: 100%
Activity against harmful plants PHBPU [5, 20]: 70%
pest or weed control at 80 g/ha [6]: 100%
Activity against harmful plants VIOTR [3, 20]: 90%

COCCCN(C)c1c(S(C)(=O)=O)ccc(C(=O)c2cnn(C)c2O)c1Cl
Activity against harmful plants AMARE [1, 20]: 70%
Activity against harmful plants PHBPU [5, 20]: 40%
pest or weed control at 80 g/ha [6]: 0%
Activity against harmful plants VIOTR [3, 20]: 70%

COCCN(C)c1c(S(C)(=O)=O)ccc(C(=O)c2cnn(C)c2O)c1C
Activity against harmful plants AMARE [1, 21]: 90%
Activity against harmful plants PHBPU [5, 21]: 80%
pest or weed control at 20 g/ha [6, 21]: 90%
Activity against harmful plants VERPE [7, 21]: 100%

COCCN(C)c1c(S(C)(=O)=O)ccc(C(=O)c2cnn(C)c2O)c1Cl
Activity against harmful plants AMARE [1, 21]: 60%
Activity against harmful plants PHBPU [5, 21]: 30%
pest or weed control at 20 g/ha [6, 21]: 50%
Activity against harmful plants VERPE [7, 21]: 60%

CCCNc1c(S(C)(=O)=O)ccc(C(=O)c2cnn(C)c2O)c1C
Activity against harmful plants DIGSA [8]: 90%
Activity against harmful plants GALAP [9]: 80%
pest or weed control at 20 g/ha [6, 22]: 80%
Activity against harmful plants VERPE [7, 22]: 70%

CCCNc1c(S(C)(=O)=O)ccc(C(=O)c2cnn(C)c2O)c1Cl
Activity against harmful plants DIGSA [8]: 70%
Activity against harmful plants GALAP [9]: 30%
pest or weed control at 20 g/ha [6, 22]: 50%
Activity against harmful plants VERPE [7, 22]: 30%

CCOCCNc1c(S(C)(=O)=O)ccc(C(=O)c2cnn(C)c2O)c1C
Activity against harmful plants AMARE [10]: 100%
Activity against harmful plants AVEFA [11]: 50%
Activity against harmful plants ECHCG [12, 23]: 100%
Activity against harmful plants SETVI [13, 23]: 100%

CCOCCNc1c(S(C)(=O)=O)ccc(C(=O)c2cnn(C)c2O)c1Cl
Activity against harmful plants AMARE [10]: 80%
Activity against harmful plants AVEFA [11]: 0%
Activity against harmful plants ECHCG [12, 23]: 40%
Activity against harmful plants SETVI [13, 23]: 80%

CCNc1c(S(C)(=O)=O)ccc(C(=O)c2cnn(C)c2O)c1C
Activity against harmful plants ECHCG [12, 24]: 90%
Activity against harmful plants SETVI [13, 24]: 60%

CCNc1c(S(C)(=O)=O)ccc(C(=O)c2cnn(C)c2O)c1Cl
Activity against harmful plants ECHCG [12, 24]: 60%
Activity against harmful plants SETVI [13, 24]: 0%

Cc1c(C(=O)c2cnn(C)c2O)ccc(S(C)(=O)=O)c1NCC1CC1
Activity against harmful plants CYPES [14]: 100%
Activity against harmful plants POLCO [15]: 60%
Activity against harmful plants VERPE [16]: 100%

Cn1ncc(C(=O)c2ccc(S(C)(=O)=O)c(NCC3CC3)c2Cl)c1O
Activity against harmful plants CYPES [14]: 40%
Activity against harmful plants POLCO [15]: 0%
Activity against harmful plants VERPE [16]: 80%

Cc1c(C(=O)c2cnn(C)c2O)ccc(S(C)(=O)=O)c1N(C)CC1CC1
Activity against harmful plants ABUTH [17]: 90%
pest or weed control at 20 g/ha [6, 25]: 90%
Activity against harmful plants STEME [18]: 100%
Activity against harmful plants VERPE [7, 25]: 80%

CN(CC1CC1)c1c(S(C)(=O)=O)ccc(C(=O)c2cnn(C)c2O)c1Cl
Activity against harmful plants ABUTH [17]: 70%
pest or weed control at 20 g/ha [6, 25]: 30%
Activity against harmful plants STEME [18]: 80%
Activity against harmful plants VERPE [7, 25]: 60%
